In PMC9250534, “Synthesis and direct assay of large macrocycle diversities by combinatorial late-stage modification at picomole scale” (Nature Communications, 2022):
Numbered stars: 1 amine (or outer) side, 2 acyl side, 3 side chain; on linkers, the order of the positions; unused ones are H or OH. Bridge positions count the residues as written; N and C are the ends. Square brackets hold non-standard residues; d marks the D form. Peptide text beside a SMILES is read from it. * marks the point of attachment. Pyrazinoyl(5-oxo-4H) = O=C(c1c[nH]c(=O)cn1)*; 1,2,3Thiadiazole5CO(4-Me) = Cc1nnsc1C(=O)*; Isoorotoyl = O=C(c1c[nH]c(=O)[nH]c1=O)*; Nicotinoyl(6-OMe) = COc1ccc(C(=O)*)cn1; 2Thenoyl(5-Cl) = O=C(c1ccc(Cl)s1)*; Pyrazinecarbonyl = O=C(c1cnccn1)*; Phenoxyacetyl = O=C(COc1ccccc1)*; Cysteamide = C(CS[*:3])N[*:1]; X3 = O=C(Cc1c[nH]c2ccccc12)*; Isovaleryl = CC(C)CC(=O)*; Orn = NCCC[C@H](N)C(=O)O; Bz = O=C(c1ccccc1)*; βAla = NCCC(=O)O; Mpa = O=C(O)CCS

Each molecule was assayed against T1, thrombin (Homo sapiens, UniProt P00734) (assay: Thrombin inhibition screen of crude macrocycle reactions (residual thrombin activity, fluorogenic substrate Z-Gly-Gly-Arg-AMC)). Conditions: 10 µM macrocycle concentration; crude reactions, Library 1a-l; scaffold AA1-AA2-AA3 combined with 1-16 or '-'.
T1 construct: consists of two polypeptide chains of 36 (light chain) and 259 amino acid
Type: biochemical
Description: As a proof-of-concept, we screened the macrocycle library for inhibitors against thrombin, which is the central blood coagulation protease and an important therapeutic target. We conducted the screen for thrombin-inhibiting macrocycles in 384-well reaction plates. Briefly, each well contained a unique macrocycle (10 μM), 5 μL of thrombin (2 nM final conc.), and subsequently, 5 µL of a fluorogenic substrate to measure the residual thrombin activity and the extent of protease inhibition.
The assays were performed in 384-well plates using Tris buffer at pH 7.4 (100 mM Tris-Cl, 150 mM NaCl, 10 mM MgCl2, 1 mM CaCl2, 0.1% w/v BSA, 0.01% v/v Triton-X100, and 0.6% v/v DMSO) using thrombin at a final concentration of 2 nM and the fluorogenic substrate Z-Gly-Gly-Arg-AMC at a final concentration of 50 μM. Thrombin (5 μL, 6 nM) in the Tris-Cl buffer described above was added to each peptide using a BioTek MultiFlo microplate dispenser, and incubated for 10 min at room temperature. […] Data was collected and exported using the Tecan Infinite M200 Pro instrument software. […] For the negative controls (20 wells containing DMSO but no macrocycle), an average slope was calculated. The percent of thrombin inhibition was calculated by dividing the slopes and multiplying the results by 100.

| SMILES | percent residual thrombin activity [%] |
| --- | --- |
| NC(=O)CC[C@@H]1NC(=O)[C@H](CCCCNC(=O)Cc2c[nH]c3ccccc23)NC(=O)[C@@H]2CCCN2C(=O)CCSSCCNC1=O [B1-D1-Q/12] ([Mpa]PK(X3)Q-Cysteamide; disulfide 1-C) | 106.242 |
| Cc1nnsc1C(=O)NCCCC[C@@H]1NC(=O)[C@@H]2CCCN2C(=O)CCSSCCNC(=O)[C@H](CCC(N)=O)NC1=O [B1-D1-Q/15] ([Mpa]PK(1,2,3Thiadiazole5CO(4-Me))Q-Cysteamide; disulfide 1-C) | 113.502 |
| CC(C)C1NC(=O)C(CCCCNC(=O)c2cnccn2)NC(=O)C2CCCN2C(=O)CCSSCCNC1=O (stereo not drawn) [B1-D1-v/2] ([Mpa]PK(Pyrazinecarbonyl)V-Cysteamide; disulfide 1-C; configuration not given here) | 115.134 |
| CC(C)CC(=O)NCCCC[C@@H]1NC(=O)[C@@H]2CCCN2C(=O)CCSSCCNC(=O)[C@@H](C(C)C)NC1=O [B1-D1-v/8] ([Mpa]PK(Isovaleryl)[dV]-Cysteamide; disulfide 1-C) | 112.751 |
| CC(C)[C@H]1NC(=O)[C@H](CCCCNC(=O)c2c[nH]c(=O)cn2)NC(=O)[C@@H]2CCCN2C(=O)CCSSCCNC1=O [B1-D1-v/9] ([Mpa]PK(Pyrazinoyl(5-oxo-4H))[dV]-Cysteamide; disulfide 1-C) | 111.698 |
| COc1ccc(C(=O)NCCCC[C@@H]2NC(=O)[C@@H]3CCCN3C(=O)CCSSCCNC(=O)[C@@H](C(C)C)NC2=O)cn1 [B1-D1-v/10] ([Mpa]PK(Nicotinoyl(6-OMe))[dV]-Cysteamide; disulfide 1-C) | 107.398 |
| CC(C)[C@H]1NC(=O)[C@H](CCCCNC(=O)COc2ccccc2)NC(=O)[C@@H]2CCCN2C(=O)CCSSCCNC1=O [B1-D1-v/13] ([Mpa]PK(Phenoxyacetyl)[dV]-Cysteamide; disulfide 1-C) | 123.844 |
| CC(C)[C@H]1NC(=O)[C@H](CCCCN)NC(=O)[C@@H]2CCCN2C(=O)CCSSCCNC1=O [B1-D1-v/-] ([Mpa]PK[dV]-Cysteamide; disulfide 1-C) | 114.269 |
| O=C(NCCCC[C@@H]1NC(=O)[C@@H]2CCCN2C(=O)CCSSCCNC(=O)[C@@H](Cc2ccc(O)cc2)NC1=O)c1ccccc1 [B1-D1-y/1] ([Mpa]PK(Bz)[dY]-Cysteamide; disulfide 1-C) | 105.697 |
| O=C(NCCCC[C@@H]1NC(=O)[C@@H]2CCCN2C(=O)CCSSCCNC(=O)[C@@H](Cc2ccc(O)cc2)NC1=O)c1c[nH]c(=O)cn1 [B1-D1-y/9] ([Mpa]PK(Pyrazinoyl(5-oxo-4H))[dY]-Cysteamide; disulfide 1-C) | 107.785 |
| COc1ccc(C(=O)NCCCC[C@@H]2NC(=O)[C@@H]3CCCN3C(=O)CCSSCCNC(=O)[C@@H](Cc3ccc(O)cc3)NC2=O)cn1 [B1-D1-y/10] ([Mpa]PK(Nicotinoyl(6-OMe))[dY]-Cysteamide; disulfide 1-C) | 109.958 |
| NC(=O)CC[C@@H]1NC(=O)[C@@H]2CCCN2C(=O)CCSSCCNC(=O)[C@H](CCCNC(=O)Cc2c[nH]c3ccccc23)NC1=O [B1-Q-D2/12] ([Mpa]PQ[Orn](X3)-Cysteamide; disulfide 1-C) | 104.653 |
| COc1ccc(C(=O)NCCC[C@@H]2NC(=O)CCNC(=O)CCSSCCNC(=O)[C@H](Cc3ccc(O)cc3)NC2=O)cn1 [B2-D2-Y/10] | 105.275 |
| O=C1CCSSCCNC(=O)[C@H](Cc2ccc(O)cc2)NC(=O)[C@H](CCCNC(=O)COc2ccccc2)NC(=O)CCN1 [B2-D2-Y/13] | 109.064 |
| O=C1CCSSCCNC(=O)[C@H](Cc2ccc(O)cc2)NC(=O)[C@H](CCCNC(=O)c2ccco2)NC(=O)CCN1 [B2-D2-Y/16] | 116.586 |
| CC(C)C[C@@H]1NC(=O)CCNC(=O)CCSSCCNC(=O)[C@H](CCCNC(=O)c2ccccc2)NC1=O [B2-L-D2/1] ([Mpa][βAla]L[Orn](Bz)-Cysteamide; disulfide 1-C) | 106.68 |
| CC(C)C[C@@H]1NC(=O)CCNC(=O)CCSSCCNC(=O)[C@H](CCCNC(=O)c2cnccn2)NC1=O [B2-L-D2/2] | 112.903 |
| COc1ccc(C(=O)NCCC[C@@H]2NC(=O)[C@H](CC(C)C)NC(=O)CCNC(=O)CCSSCCNC2=O)cn1 [B2-L-D2/10] | 110.801 |
| CC(C)C[C@@H]1NC(=O)CCNC(=O)CCSSCCNC(=O)[C@H](CCCNC(=O)c2c[nH]c(=O)[nH]c2=O)NC1=O [B2-L-D2/11] | 112.783 |
| CC(C)C[C@@H]1NC(=O)CCNC(=O)CCSSCCNC(=O)[C@H](CCCNC(=O)c2ccco2)NC1=O [B2-L-D2/16] | 111.509 |
| CC(C)C[C@@H]1NC(=O)CCNC(=O)CCSSCCNC(=O)[C@H](CCCN)NC1=O [B2-L-D2/-] ([Mpa][βAla]L[Orn]-Cysteamide; disulfide 1-C) | 113.32 |
| O=C1CCSSCCNC(=O)[C@H](Cc2ccc(O)cc2)NC(=O)[C@H](CCCCNC(=O)c2c[nH]c(=O)cn2)NC(=O)c2ccc(cc2)CN1 [B3-D1-Y/9] | 101.633 |
| COc1ccc(C(=O)NCCCC[C@@H]2NC(=O)c3ccc(cc3)CNC(=O)CCSSCCNC(=O)[C@H](Cc3ccc(O)cc3)NC2=O)cn1 [B3-D1-Y/10] | 99.2373 |
| COc1ccc(C(=O)NCCCC[C@@H]2NC(=O)[C@H](Cc3cnc[nH]3)NC(=O)c3ccc(cc3)CNC(=O)CCSSCCNC2=O)cn1 [B3-H-D1/10] | 107.476 |
| O=C1CCSSCCNC(=O)[C@H](CCCCNC(=O)c2c[nH]c(=O)[nH]c2=O)NC(=O)[C@H](Cc2c[nH]cn2)NC(=O)c2ccc(cc2)CN1 [B3-H-D1/11] | 112.941 |
| O=C1CCSSCCNC(=O)[C@H](CCCCNC(=O)c2ccc(Cl)s2)NC(=O)[C@H](Cc2c[nH]cn2)NC(=O)c2ccc(cc2)CN1 [B3-H-D1/14] | 102.666 |

Second part, the molecule after the results:

| percent residual thrombin activity [%] | SMILES |
| --- | --- |
| 107.218 | CC(C)[C@H]1NC(=O)[C@H](CCCCNC(=O)c2ccccc2)NC(=O)[C@@H]2CCCN2C(=O)CCSSCCNC1=O [B1-D1-v/1] ([Mpa]PK(Bz)[dV]-Cysteamide; disulfide 1-C) |
| 110.064 | NC(=O)CC[C@@H]1NC(=O)[C@@H]2CCCN2C(=O)CCSSCCNC(=O)[C@H](CCCNC(=O)c2c[nH]c(=O)[nH]c2=O)NC1=O [B1-Q-D2/11] ([Mpa]PQ[Orn](Isoorotoyl)-Cysteamide; disulfide 1-C) |
| 109.462 | O=C(NCCC[C@@H]1NC(=O)[C@H](CO)NC(=O)[C@@H]2CCCN2C(=O)CCSSCCNC1=O)c1ccccc1 [B1-S-D2/1] ([Mpa]PS[Orn](Bz)-Cysteamide; disulfide 1-C) |
| 106.543 | CC(C)CC(=O)NCCC[C@@H]1NC(=O)[C@H](CO)NC(=O)[C@@H]2CCCN2C(=O)CCSSCCNC1=O [B1-S-D2/8] ([Mpa]PS[Orn](Isovaleryl)-Cysteamide; disulfide 1-C) |
| 112.339 | O=C(NCCC[C@@H]1NC(=O)[C@H](CO)NC(=O)[C@@H]2CCCN2C(=O)CCSSCCNC1=O)c1c[nH]c(=O)[nH]c1=O [B1-S-D2/11] ([Mpa]PS[Orn](Isoorotoyl)-Cysteamide; disulfide 1-C) |
| 96.3876 | O=C(NCCC[C@@H]1NC(=O)[C@H](CO)NC(=O)[C@@H]2CCCN2C(=O)CCSSCCNC1=O)c1ccc(Cl)s1 [B1-S-D2/14] ([Mpa]PS[Orn](2Thenoyl(5-Cl))-Cysteamide; disulfide 1-C) |
| 110.704 | COc1ccc(C(=O)NCCCC[C@@H]2NC(=O)[C@@H](CO)NC(=O)[C@@H]3CCCN3C(=O)CCSSCCNC2=O)cn1 [B1-s-D1/10] ([Mpa]P[dS]K(Nicotinoyl(6-OMe))-Cysteamide; disulfide 1-C) |
| 111.278 | O=C(Cc1c[nH]c2ccccc12)NCCCC[C@@H]1NC(=O)[C@@H](CO)NC(=O)[C@@H]2CCCN2C(=O)CCSSCCNC1=O [B1-s-D1/12] ([Mpa]P[dS]K(X3)-Cysteamide; disulfide 1-C) |
| 113.487 | NCCCC[C@@H]1NC(=O)[C@@H](CO)NC(=O)[C@@H]2CCCN2C(=O)CCSSCCNC1=O [B1-s-D1/-] ([Mpa]P[dS]K-Cysteamide; disulfide 1-C) |
| 108.892 | O=C(NCCC[C@@H]1NC(=O)[C@H](CO)NC(=O)[C@@H]2CCCN2C(=O)CCSSCCNC1=O)c1ccccc1 [B1-s-D2/1] ([Mpa]PS[Orn](Bz)-Cysteamide; disulfide 1-C) |
| 104.868 | CC(C)CC(=O)NCCC[C@@H]1NC(=O)[C@H](CO)NC(=O)[C@@H]2CCCN2C(=O)CCSSCCNC1=O [B1-s-D2/8] ([Mpa]PS[Orn](Isovaleryl)-Cysteamide; disulfide 1-C) |
| 111.409 | O=C(NCCC[C@@H]1NC(=O)[C@H](CO)NC(=O)[C@@H]2CCCN2C(=O)CCSSCCNC1=O)c1c[nH]c(=O)[nH]c1=O [B1-s-D2/11] ([Mpa]PS[Orn](Isoorotoyl)-Cysteamide; disulfide 1-C) |
| 95.3682 | O=C(NCCC[C@@H]1NC(=O)[C@H](CO)NC(=O)[C@@H]2CCCN2C(=O)CCSSCCNC1=O)c1ccc(Cl)s1 [B1-s-D2/14] ([Mpa]PS[Orn](2Thenoyl(5-Cl))-Cysteamide; disulfide 1-C) |
